Results taken from paper PMC8333425, “Discovery of a dual Ras and ARF6 inhibitor from a GPCR endocytosis screen” (Nature Communications, 2021).

System: Rac/Cdc42
Assay: Rac/Cdc42 BRET sensor (PAK-CRIB-RlucII / rGFP-CAAX), AT1R-mediated
Assay type: cell-based, human
From the text: Since 21 inhibited both ERK1/2 and Akt activation by GPCRs and EGFR, we looked at a common target involved in both pathways. The small G protein Ras is an upstream regulator of both Ras-RAF-MEK-ERK and PI3K/Akt signaling pathways[35],[36]. Therefore, we explored 21’s ability to inhibit Ras activity using GST-Raf1-Ras-binding domain (RBD) in a pull-down assay. A reduction of 60% in GTP-bound Ras was noticed in pulled-down from cells treated with 21 and stimulated with either AT1R or EGFR, as compared to vehicle-treated cells (Fig. 4a, b). Complementary to this in vitro assay, we generated a Ras BRET assay, using the Raf-Ras binding domain tagged with RlucII (Raf1-RBD-RlucII) and the rGFP at the PM (rGFP-CAAX) (Supplementary Fig. 3c), to assess 21’s effects on Ras activation kinetics. […] Overexpression of either the active form of Ras (G12V) or SOS1 anchored at the PM (SOS-CAAX) produced a robust basal BRET signal that was no longer modulated by receptor activation (Supplementary Fig. 3d). […] 21’s potency to inhibit ARF6 and Ras is also consistent with its relative efficacy for inhibiting AT1R internalization and MAPK, respectively, when used at 50 μM (e.g., around 7 and 70 times the respective IC50s) (Figs. 2e and 3a). We also assessed if 21 was acting as a pan small G protein inhibitor by testing its effect on Rho and Rac/Cdc42. […] To assess Rac/Cdc42 activity, we generated a Rac/Cdc42 BRET sensor that consisted of the PAK-CRIB domain fused to RlucII (PAK-CRIB-RlucII) and the rGFP-CAAX (Supplementary Fig. 3e). PAK-CRIB, which binds to active Rac/Cdc42, was recruited to the PM upon AngII stimulation of cells and generated a robust BRET signal, which was blocked by the overexpression of the DN Rac1-T17N. Overexpression of the constitutively active Rac1-Q61L increased the basal BRET, which was no longer modulated by AT1R stimulation (Supplementary Fig. 3f).
HEK293SL cells were seeded at a density of 7.5 × 10^5 cells per 100-mm dish and 24 h later, transiently transfected as such. For receptor internalization experiments, cells were transfected with 0.12 μg AT1R-RlucII, B2R-RlucII, or β2AR-RlucII and 0.48 μg of either rGFP-CAAX (to assess removal from the PM) or rGFP-FYVE (to assess accumulation in the endosomes). For β-arrestin recruitment assays, cells were transfected with 0.48 μg of receptor-YFP along with 0.12 μg of β-arrestin-RlucII. For β-arrestin/AP-2 binding experiments, cells were transfected with 1 μg Flag-AT1R, 1 μg β2-Adaptin-YFP, and 0.12 μg β-arrestin2-RlucII. For G protein activation, cells were transfected with 3 μg of sp-Flag-AT1R along with either 4.5 μg of the Gαq-polycistronic BRET sensor or 0.24 μg of the Gαi3-RlucII and 0.6 μg of GFP10-Gγ2 and Gβ1 sensors or 0.12 μg PKN-RBD-RlucII and 0.48 μg of rGFP-CAAX. For PKC activation, cells were transfected with 3 μg of sp-Flag-AT1R and 0.18 μg of the PKC sensor. For GTPase activation experiments, cells were transfected with 1 μg Flag-AT1R, 0.48 μg of rGFP-CAAX, and either 0.12 μg of GGA3-PBD-RlucII, PAK-CRIB-RlucII or Raf-RBD-RlucII. For biosensor validation experiments, cells were additionally transfected with 500 ng Flag-K-Ras-WT, Flag-K-Ras-G12V, Flag-K-Ras-SOS-CAAX, HA-ARF6-WT, HA-ARF6-T27N, Myc-Rac1-WT, Myc-Rac1-Q61L or Myc-Rac1-T17N. For PI3K/Akt activation experiments, cells were transfected with 0.48 μg of rGFP-CAAX and 0.12 μg of Akt (PH)-RlucII. After 18 h of transfection, the media was replaced and cells were divided for subsequent experiments. Cells were detached and seeded onto poly-L-ornithine-coated 96-well flat white bottom plates (BrandTech Scientific) at a density of 2.5 × 10^4 cells per well in media. The next day, cells were washed once with Tyrode’s buffer (140 mM NaCl, 2.7 mM KCl, 1 mM CaCl2, 12 mM NaHCO3, 5.6 mM D-glucose, 0.5 mM MgCl2, 0.37 mM NaH2PO4, 25 mM HEPES, pH 7.4) and left in Tyrode’s buffer. […]

CC(C)C(=O)N1CCN(c2ccc(NC(=O)c3cc4ccccc4o3)cc2Cl)CC1 [Compound 21]
Rac/Cdc42 activation mediated by AT1R (BRET sensor): failed to inhibit Rac/Cdc42 activation | Rac MEAN (Fig.4d) (Log [Comp 21] (M) -4): 98.9456 | Rac MEAN (Fig.4d) (Log [Comp21] (M) -4.3): 92.4505 | Rac MEAN (Fig.4d) (Log [Comp21] (M) -5): 96.5837 | Rac MEAN (Fig.4d) (Log [Comp21] (M) -5.3): 100.464 | Rac MEAN (Fig.4d) (Log [Comp 21] (M) -6): 102.348 | Rac MEAN (Fig.4d) (Log [Comp21] (M) -6.3): 96.0354 | Rac MEAN (Fig.4d) (Log [Comp 21] (M) -7): 96.1409
